Test results published in article PMC12040169 (PLOS Biology, 2025).

Test: in vitro
Details: human, hela cells, % viability

SMILES | viability at 28.5 h, 10 µM [%]
CCN1C(=O)C2(CC(=O)N(CCCCC(C)C)C2=O)c2cc(C)ccc21 (stereo not drawn) [CBK075173] | 103
COCCN1C(=O)C2(CC(=O)N(Cc3ccccc3)C2=O)c2cc(OC)ccc21 (stereo not drawn) [CBK075177] | 92.5
COCCN1C(=O)C2(CC(=O)N(CCN3CCCC3=O)C2=O)c2cc(OC)ccc21 (stereo not drawn) [CBK075189] | 92.4
CCN1C(=O)C2(CC(=O)N(CCc3cccc(OC)c3)C2=O)c2cc(C)ccc21 (stereo not drawn) [CBK075195] | 96.7
COc1ccc2c(c1)C1(CC(=O)N(CCc3scnc3C)C1=O)C(=O)N2C (stereo not drawn) [CBK075213] | 91.6
CCN1C(=O)C2(CC(=O)N(CCc3scnc3C)C2=O)c2cc(C)ccc21 (stereo not drawn) [CBK075217] | 96.8
COc1ccc2c(c1)C1(CC(=O)N(Cc3ccccc3)C1=O)C(=O)N2Cc1ccccc1 (stereo not drawn) [CBK075228] | 106
CCN1C(=O)C2(CC(=O)N(Cc3ccccc3)C2=O)c2cc(Cl)ccc21 (stereo not drawn) [CBK075233] | 99.1
CCN1C(=O)C2(CC(=O)N(CC(=O)OC)C2=O)c2cc(Cl)ccc21 (stereo not drawn) [CBK075234] | 93.7
COc1ccc2c(c1)C1(CC(=O)N(Cc3cccnc3)C1=O)C(=O)N2C (stereo not drawn) [CBK075236] | 103
COc1ccc2c(c1)C1(CC(=O)N(CCc3scnc3C)C1=O)C(=O)N2Cc1ccccc1 (stereo not drawn) [CBK075240] | 95.7
C=CCN1C(=O)CC2(C1=O)C(=O)N(C)c1ccc(Cl)cc12 (stereo not drawn) [CBK075242] | 110
CN1C(=O)C2(CC(=O)N(CC3CCCCC3)C2=O)c2cc(F)ccc21 (stereo not drawn) [CBK075257] | 106
CN1C(=O)C2(CC(=O)N(Cc3ccccc3)C2=O)c2cc(F)ccc21 (stereo not drawn) [CBK075268] | 98.6
C=CCN1C(=O)C2(CC(=O)N(Cc3ccccc3)C2=O)c2cc(OC)ccc21 (stereo not drawn) [CBK075281] | 103
C=CCN1C(=O)CC2(C1=O)C(=O)N(CC)c1ccc(F)cc12 (stereo not drawn) [CBK075316] | 115
C=CCN1C(=O)C2(CC(=O)N(CC)C2=O)c2cc(F)ccc21 (stereo not drawn) [CBK075318] | 100
COCCN1C(=O)C2(CC(=O)N(CCCN3C(=O)CCC3=O)C2=O)c2ccccc21 (stereo not drawn) [CBK075333] | 117
COCCN1C(=O)C2(CC(=O)N(CC3CCCCC3)C2=O)c2ccccc21 (stereo not drawn) [CBK075355] | 97.8
C=CCN1C(=O)CC2(C1=O)C(=O)N(Cc1ccc(S(=O)(=O)N(CC)CC)cc1)c1ccc(Cl)cc12 (stereo not drawn) [CBK075412] | 98
C=CCN1C(=O)CC2(C1=O)C(=O)N(CCCN1C(=O)c3ccccc3C1=O)c1ccc(Cl)cc12 (stereo not drawn) [CBK075443] | 92.6

SMILES | viability at 28.5 h, 10 µM [%]
C=CCN1C(=O)CC2(C1=O)C(=O)N(Cc1csc(-c3ccccc3)n1)c1ccc(Cl)cc12 (stereo not drawn) [CBK075445] | 99.6
COc1ccc(CN2C(=O)CC3(C2=O)C(=O)N(C)c2ccccc23)cc1OC (stereo not drawn) [CBK075450] | 91.8
CN1C(=O)CC2(C1=O)C(=O)N(CCN1CCCC1=O)c1ccc(F)cc12 (stereo not drawn) [CBK075463] | 90.4
COc1cc(OC)nc(CN2C(=O)C3(CC(=O)N(C)C3=O)c3cc(F)ccc32)n1 (stereo not drawn) [CBK075475] | 110
COc1ccc2c(c1)C1(CC(=O)N(Cc3ccccc3)C1=O)C(=O)N2CCn1cnc2c1c(=O)n(C)c(=O)n2C (stereo not drawn) [CBK075478] | 93.5
COCCN1C(=O)C2(CC(=O)N(CCNS(C)(=O)=O)C2=O)c2cc(C)ccc21 (stereo not drawn) [CBK075479] | 98.2
CN1C(=O)CC2(C1=O)C(=O)N(Cc1ccc3ccccc3n1)c1ccc(Cl)cc12 (stereo not drawn) [CBK075494] | 102
Cc1ccc2c(c1)C1(CC(=O)N(C)C1=O)C(=O)N2CCCOc1ccccc1 (stereo not drawn) [CBK075496] | 98.2
COc1ccc2c(c1)C1(CC(=O)N(Cc3ccccc3)C1=O)C(=O)N2CCCN1C(=O)c2ccccc2C1=O (stereo not drawn) [CBK075501] | 93.4
CCN1C(=O)CC2(C1=O)C(=O)N(Cc1nc(OC)cc(OC)n1)c1ccccc12 (stereo not drawn) [CBK075510] | 75.8
CCN1C(=O)CC2(C1=O)C(=O)N(CCCN(C)S(C)(=O)=O)c1ccccc12 (stereo not drawn) [CBK075519] | 101
CCN1C(=O)CC2(C1=O)C(=O)N(CCc1cccs1)c1ccccc12 (stereo not drawn) [CBK075521] | 91.4
COc1ccc(OCCCN2C(=O)C3(CC(=O)N(Cc4ccccc4)C3=O)c3cc(OC)ccc32)cc1 (stereo not drawn) [CBK075523] | 106
Cc1ccc2c(c1)C1(CC(=O)N(C)C1=O)C(=O)N2CCOc1cccc2c1OCCO2 (stereo not drawn) [CBK075529] | 99.6
CCN1C(=O)CC2(C1=O)C(=O)N(CCc1cccs1)c1ccc(Cl)cc12 (stereo not drawn) [CBK075614] | 106
O=C1CC2(C(=O)N1Cc1ccccc1)C(=O)N(Cc1csc(-c3ccccc3)n1)c1ccccc12 (stereo not drawn) [CBK075673] | 112
C=CCN1C(=O)CC2(C1=O)C(=O)N(Cc1nc(-c3ccc(Cl)cc3)no1)c1ccc(OC)cc12 (stereo not drawn) [CBK075692] | 97.1
Cc1ccc(-c2nnc(CN3C(=O)C4(CC(=O)N(Cc5ccccc5)C4=O)c4ccccc43)o2)cc1 (stereo not drawn) [CBK075749] | 103
COCCN1C(=O)CC2(C1=O)C(=O)N(CC(=O)c1ccccc1)c1ccccc12 (stereo not drawn) [CBK075875] | 99
COCCOCN1C(=O)CC2(C1=O)C(=O)N(Cc1ccc(OC(F)(F)F)cc1)c1ccccc12 (stereo not drawn) [CBK075942] | 94.2
CC(C)N1C(=O)C2(CC(=O)N(CCCN3C(=O)c4ccccc4C3=O)C2=O)c2cc(F)ccc21 (stereo not drawn) [CBK075969] | 99

SMILES | viability at 28.5 h, 10 µM [%]
COc1cccc(CN2C(=O)CC3(C2=O)C(=O)N(CC(=O)c2ccccc2)c2ccccc23)c1 (stereo not drawn) [CBK075984] | 88.9
COc1cc(OC)nc(CN2C(=O)CC3(C2=O)C(=O)N(CC(=O)c2ccccc2)c2ccc(C)cc23)n1 (stereo not drawn) [CBK076059] | 96.7
O=C(O)CN1C(=O)CC2(C1=O)C(=O)N(Cc1ccccc1)c1ccccc12 (stereo not drawn) [CBK076093] | 116
Cc1nc(CN2C(=O)CC3(C2=O)C(=O)N(CCCCOc2ccccc2)c2ccccc23)cs1 (stereo not drawn) [CBK076103] | 102
Cc1ccc2c(c1)C1(CC(=O)N(CC(=O)O)C1=O)C(=O)N2C (stereo not drawn) [CBK076104] | 96.8
CN1C(=O)CC2(C1=O)C(=O)N(CC(=O)O)c1ccc(Cl)cc12 (stereo not drawn) [CBK076107] | 98.8
COc1ccc2c(c1)C1(CC(=O)N(C)C1=O)C(=O)N2CCCC(=O)O (stereo not drawn) [CBK076109] | 77.3
COc1ccc2c(c1)C1(CC(=O)N(C)C1=O)C(=O)N2CC(=O)O (stereo not drawn) [CBK076118] | 100
O=C(O)CN1C(=O)C2(CC(=O)N(Cc3ccccc3)C2=O)c2cc(F)ccc21 (stereo not drawn) [CBK076173] | 99.3
CCN1CCCC1CNC(=O)c1ccc(-c2ccco2)nc1N1CCN(C(=O)c2ccco2)CC1 (stereo not drawn) [CBK076206] | 90.4
COc1ccc(OCCNC(=O)c2cc(Br)cnc2N2CCOCC2)cc1 [CBK076214] | 88
O=C(NCCc1c[nH]c2ccccc12)c1ccc(-c2ccco2)nc1N1CCN(C(=O)c2ccco2)CC1 [CBK076217] | 95.4
O=C(NCc1nc2ccccc2[nH]1)c1cc(Br)cnc1NCCOc1ccccc1 [CBK076220] | 104
CN1CCN(C(=O)c2cc(Br)cnc2NCCOc2ccccc2)CC1 [CBK076231] | 92
O=C(NCc1cccnc1)c1cc(Br)cnc1NCCOc1ccccc1 [CBK076265] | 99.2
O=C(NCc1nc2ccccc2[nH]1)c1cc(Br)cnc1N1CCOCC1 [CBK076278] | 96.7
O=C(NCC1COc2ccccc2O1)c1cc(-c2ccc(Cl)cc2)cnc1N1CCOCC1 (stereo not drawn) [CBK076286] | 94.9
CN(C)C(=O)c1cc(Br)cnc1NCc1ccc2c(c1)OCO2 [CBK076293] | 110
COc1ccc(-c2cnc(NCC3CC3)c(C(=O)N(C)CCN(C)C)c2)cc1 [CBK076338] | 90.5
C=C(C)CNC(=O)c1cc(-c2ccc(OC)cc2)cnc1NCC1CC1 [CBK076339] | 97.7
COc1ccc(OCCNC(=O)c2cc(-c3cccnc3)cnc2N2CCOCC2)cc1 [CBK076341] | 96.2

SMILES | viability at 28.5 h, 10 µM [%]
CN1CCN(C(=O)c2cc(Br)cnc2NCc2cccnc2)CC1 [CBK076347] | 87.3
Cc1ccc(C(=O)N(C)CCN(C)C)c(NCc2cccnc2)n1 [CBK076348] | 91.5
O=C(NCc1ccco1)c1cc(-c2ccc(Cl)cc2)cnc1N1CCOCC1 [CBK076352] | 87
Cc1cc(NC(=O)c2cc(Br)cnc2NCc2cccnc2)n(C)n1 [CBK076358] | 90.7
CNC(=O)c1cccc(NC(=O)c2cc(Br)cnc2NCC2CC2)c1 [CBK076380] | 95.5
COc1ccc(OCCNC(=O)c2ccc(C)nc2NCCCn2ccnc2)cc1 [CBK076385] | 117
C=C(C)CNC(=O)c1ccc(C)nc1N1CCOCC1 [CBK076389] | 93.5
Cc1ccc(C(=O)NCc2cccnc2)c(N2CCOCC2)n1 [CBK076400] | 112
O=C(Nc1ccc(C(F)(F)F)cc1)c1cc(Br)cnc1NCc1cccnc1 [CBK076419] | 111
O=C(NCCc1ccccc1)c1cc(Br)cnc1NCCCn1ccnc1 [CBK076421] | 103
C=CCNC(=O)c1cc(Br)cnc1NCC1CC1 [CBK076424] | 102
COc1ccc(S(=O)(=O)NCCNC(=O)c2cc(-c3cccc(S(C)(=O)=O)c3)cnc2NCC2CC2)cc1 [CBK076425] | 94.6
CC(=O)NCCNC(=O)c1ccc(C)nc1N1CCOCC1 [CBK076453] | 98.6
O=C(NC1CCS(=O)(=O)C1)c1cc(-c2cccnc2)cnc1NCc1ccc2c(c1)OCO2 (stereo not drawn) [CBK076455] | 89.2
O=C(NNCc1ccccc1)c1cc(Br)cnc1N1CCN(C(=O)c2ccco2)CC1 [CBK076460] | 101
COCCNC(=O)c1cc(-c2cccc(C(=O)N(C)C)c2)cnc1N1CCOCC1 [CBK076464] | 97.7
COc1cccc(-c2ccc(C(=O)NCCNC(C)=O)c(N3CCOCC3)n2)c1 [CBK076465] | 86.3
CN(C)CCN(C)C(=O)c1cc(Br)cnc1N(C)S(C)(=O)=O [CBK076476] | 96.2
